# Experimental data as given in publication PMC4021972 (2014).
# Test system: KRAS utr-2 (RNA, G4) GGAAGGCGGCGG
# Assay: UV-vis titration (Soret band)
# Details: 100 mM KCl; 50 mM Tris-HCl pH 7.4 (from methods); 6 μM C14 titrated with G4-RNA; simple binding equation
structure (smiles),measurement,value
CCCCCCCCCCCCCC[n+]1ccc(-c2c3nc(c(-c4cc[n+](C)cc4)c4ccc([nH]4)c(-c4cc[n+](C)cc4)c4nc(c(-c5cc[n+](C)cc5)c5ccc2[nH]5)C=C4)C=C3)cc1,KD,~ 5 × 10^-7 M
